Our source for the IC50 values is patent publication US10100050B2 (CHIESI FARMACEUTICI S.P.A., priority 2015, dated 2018).

Molecules are shown by their SMILES. Structures can show the parent of a compound that is named as a salt. Some results are limits rather than exact numbers.

In test [1] the target is T1, p38alpha (Homo sapiens, UniProt Q16539).
T1 construct: purchased Invitrogen PV3304
Put plainly: P38alpha enzyme inhibition assay (Alphascreen kinase activity assay). It is filed as biochemical. To be noted: IC50 classes; 2 hours preincubation at 25° C., 250 μM ATP; read-out: p38α inhibition. The procedure: P38alpha Enzyme Inhibition Assay
The inhibitory activity of compounds was determined using an Alphascreen® (Perkin Elmer) based kinase activity assay. Kinase reactions consisted of 25 mM HEPES pH 7.5, 10 mM MgCl2, 100 μM Na3VO4, 2 mM DTT, 0.05 mg/ml Tween […] (Invitrogen, PV3304), 1% DMSO and 0.3 μg/ml ATF-2 fusion protein (New England Biolabs, 9224). Compounds were incubated under these conditions for 2 hours, at 25° C., prior to the initiation of the kinase activity by the addition of the 250 μM ATP. Reaction volumes were 20 uL. After 1 hr at 25° C. reactions were stopped by the adding 10 uL of 25 mM HEPES pH 7.5 containing 62.5 mM EDTA, 0.05% Triton X-100, 10% BSA and 0.83 ng/uL anti-phospho-ATF2 antibody (Abcam, ab28812). Detection was performed by measuring luminescence following the addition of Alphascreen Donor beads (Perkin Elmer 6765300) and Protein A Alphascreen Acceptor beads (Perkin Elmer 6760137), both at a final concentration of 20 ug/ml. IC50 values were determined from concentration-response curves.
(In general: In Alpha technology, singlet oxygen from a donor bead excites a nearby acceptor bead.)

Test [2] has as its system Peripheral Blood Mononuclear Cells (PBMCs). Put plainly: LPS-stimulated PBMC TNFα release assay. It is filed as cell-based. To be noted: IC50 classes; human PBMC, LPS 10 ng/ml, 18 h; read-out: LPS-stimulated PBMC TNFα release inhibition. As for the experimental part: 1-10 nM ‘+’; • <1 nM ‘++’ LPS-Stimulated PBMC TNFα Release Assay
Peripheral Blood Mononuclear Cells (PBMCs) were isolated from healthy human volunteer blood using a standard density gradient centrifugation technique. Citrated blood was placed onto Histopaque™ and centrifuged. The PBMCs were removed from the density gradient interface and washed in phosphate buffered saline (PBS). The PBMCs were suspended in RPMI 1640 medium (without serum), dispensed into a 96-well plate and incubated at 37° C. for 3 h in a humidified incubator. After incubation, the medium was replaced (with medium containing 1% foetal bovine serum) and the plate incubated at 37° C., for 1 h, in the presence of test compound or the appropriate vehicle. LPS (10 ng/ml), or an appropriate vehicle control, was then added to the cells and the plate returned to the incubator for 18 h. Cell-free supernatants were removed and assayed for TNFα levels using MSD plates on the Sector Imager 6000 (MesoScale).
A dose response curve to each test compound was performed and the effect of compound in each experiment was expressed as a percentage inhibition of the control TNFα release. Dose response curves were plotted and compound potency (IC50) was determined. Compounds were tested in at least three separate experiments.

Test [3] deals with BEAS-2B cells. Put plainly: TNFα-stimulated BEAS-2B IL-8 release assay. The class given is cell-based. To be noted: Homo sapiens, IC50 classes, TNF-α 10 ng/ml, 18 h, read-out: TNFα-stimulated BEAS-2B IL-8 release inhibition. The procedure: TNFα-Stimulated BEAS-2B IL-8 Release Assay
Human bronchial epithelial cell line BEAS-2B was purchased from Sigma (St. Louis, Mo.). BEAS-2B cells were cultured in Bronchial Epithelial cell Growth Medium (BEGM), prepared by supplementing Bronchial Epithelial Basal Medium with SingleQuotes™ (Lonza, Switzerland), which contains retinoic acid, epidermal growth factor, epinephrine, transferrin, triiodothyronin, insulin, hydrocortisone, antimicrobial agents, and bovine pituitary extract. In addition, BEGM medium was supplemented with 2 mM glutamine, 100 U penicillin and 100 μg/ml streptomycin (Life Technologies), in an atmosphere of 95% air and 5% CO2 at 37° C.
BEAS-2B were seeded in 48-well plates at the density of 3×10^4 cells per well, grown to approximately 80-90% confluence. Cells were pre-incubated with p38 inhibitors for 1 hour and then stimulated with TNF-α (10 ng/ml) for 18 h at 37° C. with 5% CO2. Subsequently, supernatants were collected and used for measuring IL-8 levels using a paired antibody quantitative ELISA kit purchased from Life Technologies (detection limit: […]). All the treatments were performed at least in quadruplicate.
A concentration-response curve to each test compound was performed and the effect of compound in each experiment was expressed as a percentage inhibition of the control IL-8 release. Compound potency (IC50) was calculated by the analysis of the sigmoidal dose-response curve (variable slope) elaborated by Graph Pad PRISM4 program.

T1 sequence (Q16539 whole entry): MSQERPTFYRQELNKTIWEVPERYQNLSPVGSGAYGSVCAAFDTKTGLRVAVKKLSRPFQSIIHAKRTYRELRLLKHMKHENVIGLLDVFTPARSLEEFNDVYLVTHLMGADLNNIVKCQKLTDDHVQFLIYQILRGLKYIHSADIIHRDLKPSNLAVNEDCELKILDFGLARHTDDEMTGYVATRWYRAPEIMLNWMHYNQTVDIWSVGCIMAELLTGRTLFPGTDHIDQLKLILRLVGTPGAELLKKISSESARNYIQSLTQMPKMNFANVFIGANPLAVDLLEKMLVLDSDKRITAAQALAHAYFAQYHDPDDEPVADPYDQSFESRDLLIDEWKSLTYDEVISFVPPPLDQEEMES

For the compound `CN1CCC[C@@H]1c1nnc2ccc(O[C@@H]3CC[C@H](NC(=O)Nc4cc(NS(C)(=O)=O)cc(C(C)(C)C)c4)c4ccccc43)cn12` [Example 22], the IC50 is < 1 nM in test [1] and 1 to 5 nM in test [2].

In the case of `CC(C)N1CCCC[C@H]1c1nnc2ccc(O[C@@H]3CC[C@H](NC(=O)Nc4cc(NS(C)(=O)=O)cc(C(C)(C)C)c4)c4ccccc43)cn12` [Example 23], the IC50 in test [1] is 1 to 10 nM; in test [2], > 5 nM.

In the case of `CN1CC(C)(C)C[C@H]1c1nnc2ccc(O[C@@H]3CC[C@H](NC(=O)Nc4cc(NS(C)(=O)=O)cc(C(C)(C)C)c4)c4ccccc43)cn12` [Example 26, N-[3-tert-Butyl-5-(3-{(1S,4R)-4-[3-((S)-1,4,4-trimethyl-pyrrolidin-2-yl)-[1,2,4]triazolo[4,3-a]pyridin-6-yloxy]-1,2,3,4-tetrahydro-naphthalenyl}-ureido)-phenyl]-methanesulfonamide], the IC50 in test [1] lay within 1 to 10 nM; in test [2] it was 1 to 5 nM.

With `CN1CCC[C@@H](c2nnc3ccc(O[C@@H]4CC[C@H](NC(=O)Nc5cc(NS(C)(=O)=O)cc(C(C)(C)C)c5)c5ccccc54)cn23)C1` [Example 30, N-[3-tert-Butyl-5-(3-{(1S,4R)-4-[3-((R)-1-methyl-piperidin-3-yl)-[1,2,4]triazolo[4,3-a]pyridin-6-yloxy]-1,2,3,4-tetrahydro-naphthalen-1-yl}-ureido)-phenyl]-methanesulfonamide], the IC50 is 1 to 10 nM in test [1] and > 5 nM in test [2].

Take `CN(C)C(C)(C)c1nnc2ccc(O[C@@H]3CC[C@H](NC(=O)Nc4cc(N)cc(C(C)(C)C)c4)c4ccccc43)cn12` [Example 34]: the IC50 in test [1] and in test [2] was < 1 nM throughout.

Consider `COc1c(NC(=O)N[C@H]2CC[C@@H](Oc3ccc4nnc([C@@H]5CCCN5C)n4c3)c3ccccc32)cc(C(C)(C)C)cc1N(CCO)S(C)(=O)=O` [Example 17, N-[5-tert-Butyl-2-methoxy-3-(3-{(1S,4R)-4-[3-((S)-1-methyl-pyrrolidin-2-1)-[1,2,4]triazolo[4,3-a]pyridin-6-yloxy]-1,2,3,4-tetrahydro-naphthalen-1-yl}-ureido)-phenyl]-N-(2-hydroxy-ethyl)-methanesulfonamide formate salt], for which the IC50 in test [1] was 1 to 10 nM; in test [2] it was > 5 nM.

Regarding `CC(C)(C)c1cc(NC(=O)N[C@H]2CC[C@@H](Oc3ccc4nnc([C@]5(C)CCCN5)n4c3)c3ccccc32)cc(NS(C)(=O)=O)c1` [Example 29, N-[3-tert-Butyl-5-(3-{(1S,4R)-4-[3-((S)-2-methyl-pyrrolidin-2-yl)-[1,2,4]triazolo[4,3-a]pyridin-6-yloxy]-1,2,3,4-tetrahydro-naphthalen-1-yl}-ureido)-phenyl]-methanesulfonamide], the IC50 in test [1] was < 1 nM; in test [2], 1 to 5 nM.

Consider `CN1CCC[C@H]1c1nnc2ccc(O[C@@H]3CC[C@H](NC(=O)Nc4cc(C(=O)NCCO)cc(C(C)(C)C)c4)c4ccccc43)cn12` [Example 50, 3-tert-Butyl-N-(2-hydroxy-ethyl)-5-(3-{(1S,4R)-4-[3-((S)-1-methyl-pyrrolidin-2-yl)-[1,2,4]triazolo[4,3-a]pyridin-6-yloxy]-1,2,3,4-tetrahydro-naphthalen-1-yl}-ureido)-benzamide], for which the IC50 was < 1 nM in test [1] and > 5 nM in test [2].

Consider `COC(=O)c1cc(NC(=O)N[C@H]2CC[C@@H](Oc3ccc4nnc([C@@H]5CCCN5C)n4c3)c3ccccc32)cc(C(C)(C)C)c1` [Example 40, 3-tert-Butyl-5-(3-{(1S,4R)-4-[3((S)-1-methyl-pyrrolidin-2-yl)-[1,2,4]triazolo[4,3-a]pyridin-6-yloxy]-1,2,3,4-tetrahydro-naphthalen-1-yl}-ureido)-benzoic acid methyl ester], for which the figures for the IC50 in test [1] and in test [2] were < 1 nM and 1 to 5 nM, respectively.

Consider `CC(C)N1CCC[C@@]1(C)c1nnc2ccc(O[C@@H]3CC[C@H](NC(=O)Nc4cc(NS(C)(=O)=O)cc(C(C)(C)C)c4)c4ccccc43)cn12` [Example 28, N-[3-tert-Butyl-5-(3-{(1S,4R)-4-[3-((S)-1-isopropyl-2-methyl-pyrrolidin-2-yl)-[1,2,4]triazolo[4,3-a]pyridin-6-yloxy]-1,2,3,4-tetrahydro-naphthalen-1-yl}-ureido)-phenyl]-methanesulfonamide], for which the IC50 in test [1] is < 1 nM; in test [2], 1 to 5 nM.

Take `CC(C)(C)c1cc(NC(=O)N[C@H]2CC[C@@H](Oc3ccc4nnc([C@]5(C)CCCN5CCO)n4c3)c3ccccc32)cc(NS(C)(=O)=O)c1` [Example 32, N-{3-tert-Butyl-5-[3-((1S,4R)-4-{3-[(S)-1-(2-hydroxy-ethyl)-2-methyl-pyrrolidin-2-yl]-[1,2,4]triazolo[4,3-a]pyridin-6-yloxy}-1,2,3,4-tetrahydro-naphthalen-1-yl)-ureido]-phenyl}-methanesulfonamide]: the IC50 in test [1] is < 1 nM; in test [2], 1 to 5 nM.

For the compound `CN1CCC[C@H]1c1nnc2ccc(O[C@@H]3CC[C@H](NC(=O)Nc4cc(C(N)=O)cc(C(C)(C)C)c4)c4ccccc43)cn12` [Example 52, 3-tert-Butyl-5-(3-{(1S,4R)-4-[3-((S)-1-methyl-pyrrolidin-2-yl)-[1,2,4]triazolo[4,3-a]pyridin-6-yloxy]-1,2,3,4-tetrahydro-naphthalen-1-yl}-ureido)-benzamide], the values for the IC50 in test [1] and in test [2] were < 1 nM and 1 to 5 nM, respectively.

Turning to `CN1CCC[C@@]1(C)c1nnc2ccc(O[C@@H]3CC[C@H](NC(=O)Nc4cc(N5CCOCC5)cc(C(C)(C)C)c4)c4ccccc43)cn12` [Example 48, 1-(3-tert-Butyl-5-morpholin-4-yl-phenyl)-3-{(1S,4R)-4-[3-((S)-1,2-dimethyl-pyrrolidin-2-yl)-[1,2,4]triazolo[4,3-a]pyridin-6-yloxy]-1,2,3,4-tetrahydro-naphthalen-1-yl}-urea], the IC50 in test [1] and in test [2] was < 1 nM in each case.

`COc1c(NC(=O)N[C@H]2CC[C@@H](Oc3ccc4nnc(N5CCCCC5)n4c3)c3ccccc32)cc(C(C)(C)C)cc1N(CCN(C)C)S(C)(=O)=O` [Example 60, N-(5-tert-Butyl-2-methoxy-3-{3-[(1S,4R)-4-(3-piperidin-1-yl-[1,2,4]triazolo[4,3,a]pyridin-6-yloxy)-1,2,3,4-tetrahydro-naphthalen-1-yl]-ureido}-phenyl-N-(2-dimethylamino-ethyl)-methanesulfonamide formate salt]: the IC50 in test [1] was 1 to 10 nM; in test [2] it was > 5 nM.

On to `COC(=O)c1cc(NC(=O)N[C@H]2CC[C@@H](Oc3ccc4nnc([C@]5(C)CCCN5C)n4c3)c3ccccc32)cc(C(C)(C)C)c1` [Example 41, 3-tert-Butyl-5-(3-{(1S,4R)-4-[3-((S)-1,2-dimethyl-pyrrolidin-2-yl)-[1,2,4]triazolo[4,3-a]pyridin-6-yloxy]-1,2,3,4-tetrahydro-naphthalen-1-yl}-ureido)-benzoic acid methyl ester], for which the IC50 in test [1] was 1 to 10 nM; in test [3], < 0.3 nM.
